Where “and” joins values, the source holds several entries; their conditions need not be identical. Identical values can stand only once. Marks after values point to notes of the source that are not given here.
Tests used:
M-Hela = assay: Cytotoxicity assay (Cytell Cell Imaging, DAPI/propidium iodide), cancer cell line; format: cell-based; conditions: Homo sapiens; M-Hela; tested at 1–100 µM; three independent experiments; read-out: IC50 Cancer Cell Line M-Hela
Chang liver cell line = assay: Cytotoxicity assay (Cytell Cell Imaging), normal cell line; format: cell-based; conditions: Homo sapiens, tested at 1–100 µM, three independent experiments, read-out: IC50 Normal Cell Line Chang Liver
[1] = test system: Acinetobacter calcoaceticus VKPM B-10353; assay: Biofilm formation, crystal violet assay; format: cell-based; conditions: A. calcoaceticus VKPM B-10353, control = 100%
Procedure: (§1) Bacterial strains and cultivation conditions. For the detection of biofilms, formation strains Vibrio aquamarinus DSM 26054 and Acinetobacter calcoaceticus VKPM B-10353 were used. These strains form biofilms, making them useful for studying biofilms.
(§2) The bacterial strains Acinetobacter calcoaceticus VKPM B-10353, E. coli MG1655 (pRecA-lux), and E. coli MG1655 (pSoxS-lux) were cultivated in Luria–Bertani (LB) medium under constant shaking to early exponential phase at 37 °C. Cells were used immediately for stress induction tests. One hundred micrograms of ampicillin per milliliter were added into LB medium at cultivation of E. coli MG1655 (pRecA-lux) and E. coli MG1655 (pSoxS-lux). Strain V. aquamarinus DSM 26054 was grown in LB medium supplemented with 3% NaCl.
(§3) The test compounds were dissolved in DMSO to the concentration of 1 × 10^−2 M. Then, they were diluted with ethanol. The control solutions were analogous dilutions of DMSO in ethanol. The tested compounds were also compared with the standard antibiotic azithromycin. Azithromycin was dissolved in DMSO to the concentration of 5 × 10^−3 M and then diluted with deionized water.
(§4) Test system for evaluation of biofilms production. To quantify the formation of biofilms, the crystal violet assay was used, with some modifications. The necessary concentrations of the test compounds were prepared as described above.
(§5) V. aquamarinus DSM 26054 was cultivated for 24 h in LB medium supplemented with 3% NaCl in the Innova 40R shaker incubator (New Brunswick Scientific, USA) at 25 °C and 200 rpm. A. calcoaceticus VKPM B-10353 was cultivated for 24 h in LB medium in the Innova 40R shaker incubator (New Brunswick Scientific, Enfield, CT, USA) at 30 °C and 200 rpm. Then, the suspensions of the daily culture of V. aquamarinus DSM 26054 and A. calcoaceticus VKPM B-10353 were diluted with LB medium supplemented with 3% NaCl to the density of 1 × 10^8 cells/mL.
(§6) The resulting suspension (180 μL) was added to the wells of a polystyrene microplate (Nuova Aptaca, Canelli, Italy). To some of the wells, 20 μL of the test substances at various concentrations were added. Since solvents used could also influence the biofilm formation, 20 μL of the appropriate solvent was added to the other part of the wells at same dilutions (control). Six replicates were done for each treatment and control. The microplate was covered with a lid and wrapped with Parafilm (Bemis Company, Inc., Oshkosh, WI, USA).
(§7) After incubation at 25 °C for 72 h, biofilms were stained. The contents in the wells were removed by means of a dispenser. The wells were then carefully washed three times with 250 μL of sterile saline. The microplates were shaken to remove all non-adherent bacteria. Biofilms were fixed with 200 μL of 96% ethanol for 15 min. After the microplates had dried in air, 200 μL of 0.5% crystal violet was introduced into the wells. After 10 min, the dye was removed. The excess dye was removed by washing with water three times. After the microplates were air-dried, the dye in the wells bound to biofilms was dissolved with 200 μL of 96% ethanol. The extraction level (absorption) of crystal violet by ethanol was measured after 60 minutes at a wavelength of 570 nm using a FLUOstar Omega microplate reader (BMG Labtech, Offenburg, Germany) in optical density units (OD570). The intensity of biofilm formation directly corresponds to the intensity of staining of the contents of the wells with the dye. Biofilm formation was determined by the difference between the mean OD readings obtained in the presence of compounds and the control.
(§8) Each experiment was performed in triplicate. The values were expressed as mean + SD. Student’s t-test was used to compare these values. Differences were considered statistically significant at p < 0.05.

[2] = test system: Vibrio aquamarinus DSM 26054; assay: Biofilm formation, crystal violet assay; format: cell-based; conditions: V. aquamarinus DSM 26054, control = 100%
Procedure: as §1, §2, §3, §4, §5, §6, §7, §8

[3] = test system: Escherichia coli MG1655 (pRecA-lux); assay: Genotoxicity, bacterial lux-biosensor; format: cell-based
Source text: (§9) E. coli MG1655 (pRecA-lux) was used for the evaluation of the genotoxicity of the synthesized compounds. The biosensor with the PrecA promotor fixes the presence of the factors causing damage of DNA in a cell. The biosensor E. coli MG1655 (pSoxS-lux) was used for the evaluation of prooxidant activity. The biosensor with the PsoxS promoter fixes the production of superoxide anion and NO [75]. Bioluminescent strains were obtained by the transformation of E. coli MG1655 by hybrid plasmids pRecA-lux, pSoxS-lux. The gene cassette luxCDABE Photorhabdus luminescens under the control PrecA promoters was used in this biosensor. This plasmid was created on the basis of pBR322 and contained a selective marker of ampicillin resistance (Amp gene). The strains were kindly furnished by Manukhov I.V., Federal State Unitary Enterprise “GosNIIGenetika”).
as §2
(§10) Biosensors assay procedure. The detailed protocol of toxicity testing by means of a bacterial lux-biosensors is described in the article.
(§11) Calculation. The criterion of toxic influence was bioluminescence intensity change of the test object in the researched sample in comparison with the control sample.
(§12) The induction factor (I) was defined as the relation of luminescence intensity of a lux-biosensor suspension containing tested sample (Lc) to the luminescence intensity of a lux-biosensor control suspension (Lk): I = Lc/Lk.
If at significant differences from control induction factor values were ≤2, the detected genotoxic effect was evaluated as “weak”, if they were in the range from 2 to 10 as “medium”, and above 10 as “strong”. All the experiments were carried out three times independently.
(§13) Difference reliability of bioluminescence in experiment from control value was estimated by t-criterion with the help of Excel software. The conclusions about sample toxicity were made at p < 0.05.

[4] = test system: E. coli MG1655 (pSoxS-lux); assay: Prooxidant activity, bacterial lux-biosensor; format: cell-based, Escherichia coli
Source text: as §9, §2, §10, §11, §12, §13

[5] = with metabolic activation (+S9), 10^−5 M
[6] = with metabolic activation (+S9), 10^−6 M
[7] = with metabolic activation (+S9), 10^−7 M
[8] = with metabolic activation (+S9), 10^−8 M
[9] = with metabolic activation (+S9), 10^−9 M
[10] = without metabolic activation (-S9), 10^−5 M
[11] = without metabolic activation (-S9), 10^−6 M
[12] = without metabolic activation (-S9), 10^−7 M
[13] = without metabolic activation (-S9), 10^−8 M
[14] = without metabolic activation (-S9), 10^−9 M

For O=C(Nc1ccc(Br)cc1)N1CCCC1c1ccc(Nc2c([N+](=O)[O-])c(Cl)cc3c2no[n+]3[O-])cc1O (stereo not drawn) [6d, 4-((4-(1-((4-Bromophenyl)carbamoyl)pyrrolidin-2-yl)-3-hydroxyphenyl)amino)-6-chloro-5-nitrobenzo[c][1,2,5]oxadiazole 1-oxide], the IC50 (M-Hela) was 25.5 ± 1.6 µM, the IC50 (Chang liver cell line) was 53 ± 3.8 µM and the “Biofilm Formation” value ([1]; 1 × 10^−5 M) was 89.50%. The “Biofilm Formation” value ([1]; 1 × 10^−6 M) was 95.71%, the “Biofilm Formation” value ([1]; 1 × 10^−7 M) was 50.00 * % and the “Biofilm Formation” value ([1]; 1 × 10^−8 M) was 46.95% and 46.95 * %. For the same compound, the “Biofilm Formation” value ([1]; 1 × 10^−9 M) was 79.16 * %, the “Biofilm Formation” value ([2]; 1 × 10^−5 M) was 63.12% and the “Biofilm Formation” value ([2]; 1 × 10^−6 M) was 24.11 * %. The “Biofilm Formation” value ([2]; 1 × 10^−7 M) was 10.70 * %, the “Biofilm Formation” value ([2]; 1 × 10^−8 M) was 6.46% and 6.46 * % and the “Biofilm Formation” value ([2]; 1 × 10^−9 M) was 67.29 * %. For the same compound, the “DNA-damaging property, in words” value ([3]; 10^−9–10^−5 M, with and without S9) was “do not belong to the class of DNA-damaging substances”, the “Genotoxicity (induction factor, I)” value [3, 5] was 0.66 ± 0.04 and the “Genotoxicity (induction factor, I)” value [3, 6] was 0.71 ± 0.03. The “Genotoxicity (induction factor, I)” value [3, 7] was 0.71 ± 0.05, the “Genotoxicity (induction factor, I)” value [3, 8] was 0.79 ± 0.03 and the “Genotoxicity (induction factor, I)” value [3, 9] was 0.76 ± 0.05. For the same compound, the “Genotoxicity (induction factor, I)” value [3, 10] was 0.60 ± 0.02, the “Genotoxicity (induction factor, I)” value [3, 11] was 0.70 ± 0.01 and the “Genotoxicity (induction factor, I)” value [3, 12] was 0.62 ± 0.03. The “Genotoxicity (induction factor, I)” value [3, 13] was 0.70 ± 0.01, the “Genotoxicity (induction factor, I)” value [3, 14] was 0.64 ± 0.03 and the “Prooxidant activity (induction factor)” value ([4]; 10^−5 M) was 1.10 ± 0.07. The “Prooxidant activity (induction factor)” value ([4]; 10^−6 M) was 1.60 ± 0.23, the “prooxidant response, in words” value ([4]; 10^−6 M) was “weak response” and the “Prooxidant activity (induction factor)” value ([4]; 10^−7 M) was 1.11 ± 0.01. The “Prooxidant activity (induction factor)” value ([4]; 10^−8 M) was 1.11 ± 0.07, the “Prooxidant activity (induction factor)” value ([4]; 10^−9 M) was 1.34 ± 0.09 and the melting point was 166 to 170 °C (dec.).

In the case of O=C(Nc1ccc(F)cc1)N1CCCC1c1ccc(Nc2c([N+](=O)[O-])c(Cl)cc3c2no[n+]3[O-])cc1O (stereo not drawn) [6e, 6-Chloro-4-((4-(1-((4-fluorophenyl)carbamoyl)pyrrolidin-2-yl)-3-hydroxyphenyl)amino)-5-nitrobenzo[c][1,2,5]oxadiazole 1-oxide], the IC50 (M-Hela) is reported as 26 ± 1.8 µM, the IC50 (Chang liver cell line) is reported as 48 ± 3 µM and the “Biofilm Formation” value ([1]; 1 × 10^−5 M) is reported as 86.50%. The “Biofilm Formation” value ([1]; 1 × 10^−6 M) was 53.27 * %, the “Biofilm Formation” value ([1]; 1 × 10^−7 M) was 55.40 * % and the “Biofilm Formation” value ([1]; 1 × 10^−8 M) was 47.66 * %. For the same compound, the “Biofilm Formation” value ([1]; 1 × 10^−9 M) was 87.92 * %, the “Biofilm Formation” value ([2]; 1 × 10^−5 M) was 39.57 * % and the “Biofilm Formation” value ([2]; 1 × 10^−6 M) was 26.02 * %. The “Biofilm Formation” value ([2]; 1 × 10^−7 M) was 11.01% and 11.01 * %, the “Biofilm Formation” value ([2]; 1 × 10^−8 M) was 17.96 * % and the “Biofilm Formation” value ([2]; 1 × 10^−9 M) was 67.29%. The “detected genotoxic effect, class” value ([3]; concentration range of 10^−9–10^−5 M) was “medium (in the range from 2 to 10)”, the “Genotoxicity (induction factor, I)” value [3, 5] was 1.24 ± 0.02 and the “Genotoxicity (induction factor, I)” value [3, 6] was 1.47 ± 0.04. For the same compound, the “Genotoxicity (induction factor, I)” value [3, 7] was 1.45 ± 0.02, the “Genotoxicity (induction factor, I)” value [3, 8] was 1.35 ± 0.04 and the “Genotoxicity (induction factor, I)” value [3, 9] was 1.43 ± 0.01. For the same compound, the “Genotoxicity (induction factor, I)” value [3, 10] was 2.00 ± 0.02, the “Genotoxicity (induction factor, I)” value [3, 11] was 2.39 ± 0.02 and the “Genotoxicity (induction factor, I)” value [3, 12] was 2.46 ± 0.02. For the same compound, the “Genotoxicity (induction factor, I)” value [3, 13] was 2.74 ± 0.04, the “Genotoxicity (induction factor, I)” value [3, 14] was 2.56 ± 0.10 and the “Prooxidant activity (induction factor)” value ([4]; 10^−5 M) was 0.84 ± 0.04. For the same compound, the “Prooxidant activity (induction factor)” value ([4]; 10^−6 M) was 1.34 ± 0.10, the “Prooxidant activity (induction factor)” value ([4]; 10^−7 M) was 1.85 ± 0.15 and the “prooxidant response, in words” value ([4]; 10^−7 M) was “weak response”. For the same compound, the “Prooxidant activity (induction factor)” value ([4]; 10^−8 M) was 1.25 ± 0.28, the “Prooxidant activity (induction factor)” value ([4]; 10^−9 M) was 0.93 ± 0.03 and the melting point was 175 to 177 °C (dec.).

From PMC6749236, “Synthesis of Novel 2-(Het)arylpyrrolidine Derivatives and Evaluation of Their Anticancer and Anti-Biofilm Activity” (Molecules, 2019)
